Here are results for five compounds from publication PMC5761851, “Application of a phenotypic drug discovery strategy to identify biological and chemical starting points for inhibition of TSLP production in lung epithelial cells” (PLoS ONE, 2018).

Common to all, as to test: kinase selectivity panel
Holding throughout (assay type): biochemical

For test [1], the target named is T1, SGK (Homo sapiens, UniProt O00141).
T1 construct: purchased Eurofins Pharma Discovery Services (KinaseProfiler; Cerep BioPrint panel)
T1 sequence (O00141 1-431): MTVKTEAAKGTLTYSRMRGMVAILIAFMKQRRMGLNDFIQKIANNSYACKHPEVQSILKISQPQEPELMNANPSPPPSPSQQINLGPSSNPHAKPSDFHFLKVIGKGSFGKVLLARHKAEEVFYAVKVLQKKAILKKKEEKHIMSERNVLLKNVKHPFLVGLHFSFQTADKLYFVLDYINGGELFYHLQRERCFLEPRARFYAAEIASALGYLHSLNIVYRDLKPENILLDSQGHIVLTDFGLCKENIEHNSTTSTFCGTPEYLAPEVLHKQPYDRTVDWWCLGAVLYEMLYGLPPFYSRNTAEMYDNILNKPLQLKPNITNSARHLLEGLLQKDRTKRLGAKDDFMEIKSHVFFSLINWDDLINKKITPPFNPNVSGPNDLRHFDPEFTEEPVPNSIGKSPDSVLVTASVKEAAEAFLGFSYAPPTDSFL
As to conditions: read-out: percentage of control activity (POC), SGK. In outline:
(§1)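 IC50 values derive from 9 duplicate concentrations, run only for activities picked after an initial 10 μM duplicate screen across 125 representative kinases.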

Test [2] has as its target T2, TAK1 (Homo sapiens, UniProt O43318).
T2 construct: purchased Eurofins Pharma Discovery Services (KinaseProfiler; Cerep BioPrint panel)
T2 sequence (O43318 1-303 limits assumed): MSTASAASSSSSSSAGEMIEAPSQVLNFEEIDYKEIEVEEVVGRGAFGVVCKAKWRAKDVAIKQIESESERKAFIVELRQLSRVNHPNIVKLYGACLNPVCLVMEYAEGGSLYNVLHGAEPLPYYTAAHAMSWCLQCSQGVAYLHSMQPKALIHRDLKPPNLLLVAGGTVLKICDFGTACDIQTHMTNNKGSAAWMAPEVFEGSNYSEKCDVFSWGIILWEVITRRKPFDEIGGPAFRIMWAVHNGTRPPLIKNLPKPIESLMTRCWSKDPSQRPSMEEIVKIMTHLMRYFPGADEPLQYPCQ
As to conditions: read-out: percentage of control activity (POC), TAK1. The method in brief: as §1

The target of test [3] is T3, MSK2 (Homo sapiens, UniProt O75676).
T3 construct: purchased Eurofins Pharma Discovery Services (KinaseProfiler; Cerep BioPrint panel)
T3 sequence (O75676 whole entry): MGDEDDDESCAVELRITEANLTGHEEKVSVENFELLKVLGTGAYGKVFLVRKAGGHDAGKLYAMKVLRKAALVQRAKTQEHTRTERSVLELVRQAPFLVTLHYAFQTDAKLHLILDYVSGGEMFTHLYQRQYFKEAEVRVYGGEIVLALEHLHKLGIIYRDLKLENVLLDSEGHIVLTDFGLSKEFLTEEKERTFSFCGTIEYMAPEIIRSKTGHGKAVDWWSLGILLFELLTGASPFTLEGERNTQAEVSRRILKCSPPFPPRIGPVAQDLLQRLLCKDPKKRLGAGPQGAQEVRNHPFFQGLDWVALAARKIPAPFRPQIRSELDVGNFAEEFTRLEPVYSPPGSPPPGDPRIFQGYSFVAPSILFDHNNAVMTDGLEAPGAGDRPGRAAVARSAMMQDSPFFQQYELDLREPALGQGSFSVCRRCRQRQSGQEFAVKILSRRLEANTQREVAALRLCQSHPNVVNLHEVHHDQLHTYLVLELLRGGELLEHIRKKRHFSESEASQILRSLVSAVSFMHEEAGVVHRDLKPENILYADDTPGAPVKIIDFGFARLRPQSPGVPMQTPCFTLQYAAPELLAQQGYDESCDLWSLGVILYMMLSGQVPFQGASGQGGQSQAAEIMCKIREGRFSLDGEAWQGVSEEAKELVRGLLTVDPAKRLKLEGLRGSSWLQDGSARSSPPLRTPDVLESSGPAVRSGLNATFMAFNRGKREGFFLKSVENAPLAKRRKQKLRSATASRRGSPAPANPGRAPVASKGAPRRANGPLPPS
As to conditions: read-out: percentage of control activity (POC), MSK2. The method in brief:
as §1

The target in test [4] is T4, Mer (Homo sapiens, UniProt Q12866).
T4 construct: purchased Eurofins Pharma Discovery Services (KinaseProfiler; Cerep BioPrint panel)
T4 sequence (Q12866 21-999): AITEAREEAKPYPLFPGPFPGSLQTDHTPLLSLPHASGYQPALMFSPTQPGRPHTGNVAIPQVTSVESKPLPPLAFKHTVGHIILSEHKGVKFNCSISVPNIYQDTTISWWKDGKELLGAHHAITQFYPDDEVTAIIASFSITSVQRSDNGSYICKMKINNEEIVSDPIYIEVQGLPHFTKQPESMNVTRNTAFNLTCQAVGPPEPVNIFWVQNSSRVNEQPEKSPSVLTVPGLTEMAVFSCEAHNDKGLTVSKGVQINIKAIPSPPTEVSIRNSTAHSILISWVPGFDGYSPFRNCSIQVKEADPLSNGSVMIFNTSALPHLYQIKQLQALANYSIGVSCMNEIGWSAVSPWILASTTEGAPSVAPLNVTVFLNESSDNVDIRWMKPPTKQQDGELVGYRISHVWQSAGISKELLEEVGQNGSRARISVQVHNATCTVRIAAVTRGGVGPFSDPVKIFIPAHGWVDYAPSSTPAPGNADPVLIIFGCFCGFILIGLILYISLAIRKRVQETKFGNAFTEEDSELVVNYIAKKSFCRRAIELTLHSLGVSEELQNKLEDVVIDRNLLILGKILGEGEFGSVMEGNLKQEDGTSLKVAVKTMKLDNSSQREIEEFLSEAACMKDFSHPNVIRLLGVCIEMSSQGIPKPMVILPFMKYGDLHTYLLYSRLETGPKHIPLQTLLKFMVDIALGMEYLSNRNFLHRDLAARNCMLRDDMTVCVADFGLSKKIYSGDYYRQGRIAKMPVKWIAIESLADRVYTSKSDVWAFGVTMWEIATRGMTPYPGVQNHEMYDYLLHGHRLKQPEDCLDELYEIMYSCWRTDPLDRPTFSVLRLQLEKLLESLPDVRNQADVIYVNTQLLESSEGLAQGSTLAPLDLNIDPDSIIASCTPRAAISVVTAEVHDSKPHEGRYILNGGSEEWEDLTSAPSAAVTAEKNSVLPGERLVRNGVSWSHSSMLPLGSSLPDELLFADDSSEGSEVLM
As to conditions: read-out: percentage of control activity (POC), Mer. The method in brief:
as §1

Test [5] concerns the target T5, AMPKα1 (Homo sapiens, UniProt Q13131).
T5 construct: purchased Eurofins Pharma Discovery Services (KinaseProfiler; Cerep BioPrint panel)
As to conditions: read-out: percentage of control activity (POC), AMPKα1. The method in brief: as §1

For test [6], the target named is T6, EphA2 (Homo sapiens, UniProt P29317).
T6 construct: purchased Eurofins Pharma Discovery Services (KinaseProfiler; Cerep BioPrint panel)
T6 sequence (P29317 24-976): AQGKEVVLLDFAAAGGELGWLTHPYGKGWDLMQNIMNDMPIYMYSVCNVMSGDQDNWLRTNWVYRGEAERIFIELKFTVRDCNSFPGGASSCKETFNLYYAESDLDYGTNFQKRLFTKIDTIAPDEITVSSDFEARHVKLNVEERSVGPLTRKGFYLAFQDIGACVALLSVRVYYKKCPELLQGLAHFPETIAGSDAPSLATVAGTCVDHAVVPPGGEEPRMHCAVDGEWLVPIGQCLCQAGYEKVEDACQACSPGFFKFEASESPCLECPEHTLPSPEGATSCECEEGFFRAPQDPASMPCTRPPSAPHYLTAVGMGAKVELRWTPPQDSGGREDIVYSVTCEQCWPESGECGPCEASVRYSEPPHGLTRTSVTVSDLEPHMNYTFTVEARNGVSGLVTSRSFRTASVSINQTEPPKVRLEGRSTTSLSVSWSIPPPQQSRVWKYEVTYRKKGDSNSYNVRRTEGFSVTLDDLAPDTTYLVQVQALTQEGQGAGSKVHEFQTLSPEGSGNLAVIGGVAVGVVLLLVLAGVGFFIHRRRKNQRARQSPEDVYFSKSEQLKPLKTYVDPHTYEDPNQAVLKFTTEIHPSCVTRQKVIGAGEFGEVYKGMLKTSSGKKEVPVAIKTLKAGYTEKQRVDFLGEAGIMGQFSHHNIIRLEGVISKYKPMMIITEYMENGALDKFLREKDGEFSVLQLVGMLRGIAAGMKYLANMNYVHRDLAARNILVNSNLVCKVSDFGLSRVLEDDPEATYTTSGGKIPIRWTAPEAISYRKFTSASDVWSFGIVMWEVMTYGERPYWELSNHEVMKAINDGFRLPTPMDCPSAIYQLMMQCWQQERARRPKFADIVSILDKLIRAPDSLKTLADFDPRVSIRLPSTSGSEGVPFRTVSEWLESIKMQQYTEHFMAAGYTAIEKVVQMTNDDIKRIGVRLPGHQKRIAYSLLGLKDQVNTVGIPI
As to conditions: read-out: percentage of control activity (POC), EphA2. The method in brief:
as §1

Test [7] concerns the target T7, GSK3β (Homo sapiens, UniProt P49841).
T7 construct: purchased Eurofins Pharma Discovery Services (KinaseProfiler; Cerep BioPrint panel)
As to conditions: read-out: percentage of control activity (POC), GSK3β. In outline:
as §1

For test [8], the target named is T8, NEK2 (Homo sapiens, UniProt P51955).
T8 construct: purchased Eurofins Pharma Discovery Services (KinaseProfiler; Cerep BioPrint panel)
T8 sequence (P51955 1-445): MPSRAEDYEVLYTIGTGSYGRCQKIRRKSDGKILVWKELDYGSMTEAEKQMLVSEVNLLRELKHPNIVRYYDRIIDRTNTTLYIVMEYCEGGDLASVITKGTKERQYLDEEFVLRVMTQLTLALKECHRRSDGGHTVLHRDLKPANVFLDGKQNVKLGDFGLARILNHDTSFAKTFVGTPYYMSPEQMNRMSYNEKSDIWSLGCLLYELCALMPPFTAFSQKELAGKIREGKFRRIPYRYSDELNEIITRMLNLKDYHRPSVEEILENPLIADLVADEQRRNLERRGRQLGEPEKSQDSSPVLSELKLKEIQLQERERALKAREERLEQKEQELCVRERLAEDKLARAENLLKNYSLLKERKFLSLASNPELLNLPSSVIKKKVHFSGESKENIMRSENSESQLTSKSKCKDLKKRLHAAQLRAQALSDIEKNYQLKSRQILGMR
As to conditions: read-out: percentage of control activity (POC), NEK2. The method in brief:
as §1

T5 sequence (Q13131 whole entry): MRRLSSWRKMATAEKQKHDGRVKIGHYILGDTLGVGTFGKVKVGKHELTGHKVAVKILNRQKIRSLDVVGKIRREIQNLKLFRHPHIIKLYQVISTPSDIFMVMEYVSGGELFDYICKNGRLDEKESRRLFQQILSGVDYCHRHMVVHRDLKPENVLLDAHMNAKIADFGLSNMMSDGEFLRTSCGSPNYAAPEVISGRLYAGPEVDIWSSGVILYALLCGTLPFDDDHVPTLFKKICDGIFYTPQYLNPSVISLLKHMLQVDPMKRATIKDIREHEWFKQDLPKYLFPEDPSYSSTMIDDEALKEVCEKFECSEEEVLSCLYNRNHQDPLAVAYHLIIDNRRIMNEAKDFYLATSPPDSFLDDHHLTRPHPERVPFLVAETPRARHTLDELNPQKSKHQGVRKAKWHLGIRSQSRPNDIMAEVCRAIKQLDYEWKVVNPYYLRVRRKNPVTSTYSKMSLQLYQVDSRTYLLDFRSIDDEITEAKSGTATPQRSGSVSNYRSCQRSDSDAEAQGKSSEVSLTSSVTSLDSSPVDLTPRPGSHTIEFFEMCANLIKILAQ
T5 sequence (Q9Y478 whole entry partner): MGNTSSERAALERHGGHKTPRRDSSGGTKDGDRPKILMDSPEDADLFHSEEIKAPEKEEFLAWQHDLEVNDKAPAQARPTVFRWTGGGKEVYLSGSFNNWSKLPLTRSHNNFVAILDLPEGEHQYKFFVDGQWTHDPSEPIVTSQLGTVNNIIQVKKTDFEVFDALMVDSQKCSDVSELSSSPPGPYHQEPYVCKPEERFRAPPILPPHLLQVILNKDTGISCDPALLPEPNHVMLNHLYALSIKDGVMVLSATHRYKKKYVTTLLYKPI
T5 sequence (P54619 whole entry partner): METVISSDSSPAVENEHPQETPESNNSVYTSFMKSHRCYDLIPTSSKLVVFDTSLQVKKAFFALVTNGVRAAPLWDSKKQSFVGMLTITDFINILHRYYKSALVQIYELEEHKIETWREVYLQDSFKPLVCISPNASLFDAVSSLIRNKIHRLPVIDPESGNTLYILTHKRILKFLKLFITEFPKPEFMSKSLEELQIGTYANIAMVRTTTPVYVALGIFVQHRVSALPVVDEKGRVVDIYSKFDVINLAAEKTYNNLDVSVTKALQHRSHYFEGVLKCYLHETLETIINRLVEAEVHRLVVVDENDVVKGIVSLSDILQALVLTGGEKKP
T7 sequence (P49841 whole entry): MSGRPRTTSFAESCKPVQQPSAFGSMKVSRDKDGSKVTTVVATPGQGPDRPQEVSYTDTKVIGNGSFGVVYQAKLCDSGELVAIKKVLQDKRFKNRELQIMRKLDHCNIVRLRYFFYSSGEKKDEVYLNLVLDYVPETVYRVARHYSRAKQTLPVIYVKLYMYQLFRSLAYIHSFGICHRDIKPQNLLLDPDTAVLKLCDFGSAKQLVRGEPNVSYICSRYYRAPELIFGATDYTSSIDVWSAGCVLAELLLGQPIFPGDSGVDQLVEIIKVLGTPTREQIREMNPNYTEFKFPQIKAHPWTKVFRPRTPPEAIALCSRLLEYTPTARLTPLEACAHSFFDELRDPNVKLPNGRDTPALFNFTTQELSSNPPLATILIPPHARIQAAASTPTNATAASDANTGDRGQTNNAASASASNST

Turning to `CC(C)(C)N1CCC(c2cc(-c3ccc(F)cc3Cl)c3cc[n+]([O-])c(-c4c(Cl)cccc4Cl)c3n2)CC1` [compound 2], the remaining activity at 10 µM in test [1] stood at 105%; in test [2], 105%; in test [3], 90%; in test [4], 95%; in test [5], 105%; in test [6], 103%. Moreover, the remaining activity at 10 µM in test [7] came out at 99%; in test [8] it was 100%.
For the compound `Cc1ccc(C(=O)NCC2CC2)cc1-c1ccc2c(c1)NC(=O)C21CCCC1` [compound 3], the remaining activity at 10 µM stood at 99% in test [1]; 97% in test [2]; 91% in test [3]; 96% in test [4]; 98% in test [5]; 100% in test [6]. Besides, the remaining activity at 10 µM in test [7] came out at 104%; in test [8] it was 99%.
Take `Cn1cc(-c2cccc(-c3nc(C(=O)NC4C5CC6CC4CC(O)(C6)C5)c(N)nc3N)c2)cn1` (stereo not shown) [compound 4]: the remaining activity at 10 µM in test [1] was 96%; in test [2], 97%; in test [3] it was 96%; in test [4], 74%; in test [5], 85%; in test [6], 97%. Also, the remaining activity at 10 µM in test [7] was found to be 105%; in test [8] it was 85%.
In the case of `CS(=O)(=O)N1CCN(c2ccc(Nc3ncc(C(N)=O)c(NC4CC4)n3)cc2)CC1` [compound 5], the remaining activity at 10 µM in test [1] is 64%; in test [2] it was 1%; in test [3], 21%; in test [4] it was 1%; in test [5], -1%; in test [6], 57%. Also, the remaining activity at 10 µM in test [7] was determined as 25%; in test [8], 4%.
Regarding `COc1c(NC(=O)c2ccc(C)c(-c3nnc4c(NCC(C)(C)C)nccn34)c2)cc(C(C)(C)C)cc1NS(C)(=O)=O` [compound 7, reference compound], the remaining activity at 10 µM in test [1] stood at 114%; in test [2] it was 103%; in test [3] it was 109%; in test [4] it was 100%; in test [5], 114%; in test [6], 63%. Besides, the remaining activity at 10 µM in test [7] was 117%; in test [8] it was 95%.
